We go through one compound from patent US20080038333A1, “Formulations For Poorly Soluble Drugs” (Bio-Dar Ltd., priority 2004, published 2008).

This data set is described as follows: Solvent evaporation of nanoemulsion, crystal formation (electron microscopy). The data set is classed as physicochemical. To be noted: evaporation performed after the beads formation, FIG. 4. The procedure: The organic solvent (toluene) was evaporated with Rotavapor (R-114 BUCHI) from the emulsion to form a dispersion of lipophilic drug in water. The organic solvent evaporation was performed in four steps, water was added up to the initial weight after each step.

Consider `CCC(C)(C)C(=O)O[C@H]1C[C@@H](C)C=C2C=C[C@H](C)[C@H](CC[C@@H]3C[C@@H](O)CC(=O)O3)[C@H]21` [simvastatine], for which the “drug particle state after solvent evaporation” value is on record as “remain as nanoparticles”.
